Holding throughout (type): cell-based
The subject of one series is SKOV-3 cells. Kind of series: Cell cycle progression of SKOV-3 cells (propidium iodide, FACS). Set-up: G1 / Apoptosis: unit not given here. The following applies: for G1 / G2/M / S / Apoptosis: SKOV-3 cells, 10 μM; for G1 / G2/M / S: cell population distribution by FACS; for Apoptosis: sub-G1 population by FACS. As for the experimental part:
SKOV-3 cells (˜1 million) were seeded in complete DMEM media in 10 cm^2 dishes and allowed to adhere overnight. Media was removed and supplemented with AMITC and AC-AM (10 μM) or vehicle and cells were harvested at 4, 12, 18, 32, and 48 hours. The cells were washed and fixed with cold 70% ethanol/H2O. After 1 hour, ethanol was removed and 500 μL of propidinium iodide (PI) (1 mg/10 mL) was added to each tube containing cells. The distribution of the cell population in various phases of cell-cycle was analyzed using FACS. 10,000 events were chosen from each sample.

Series [1] relates to ovarian and endometrial cancer cells. The experiment in a line: MTS viability with ascorbic acid co-treatment (role of ROS). As for the experimental part: Cancer cells derived from neuroblastoma (SMSKCNR), ovarian (SKOV-3), prostate (PC-3), endometrial (ECC-1, AN3CA, KLE), breast (MCF-7) and trophoblasts (TCL-1) were seeded (5000-10000 cells/well) in a 96 well plate in complete medium as recommended by ATCC and allowed to adhere overnight. The medium was replaced with fresh complete medium containing ascorbic acid (500 μM) and added various concentrations of AC-AM. The cells were incubated under standard humidified incubator (5% CO2) for 24 hours. The medium was replaced again with 100 μL of complete RPMI medium containing MTS reagent (Cell titre 96 aqueous one solution cell proliferation assay, Promega, Madison, Wis.) and incubated for 1-6 hours until violet farmazon color developed (the optical density of the color was read with an ELISA plate reader at 492 nm wavelength). The OD values of the treatment wells were plotted against vehicle OD set at 100% cell viability using MS excel software.

In series [2] the test system is immortalized TCL-1 trophoblasts. The experiment in a line: MTS cell viability, immortalized trophoblasts (control cells). To be noted: drug concentrations of 40 μM. As for the experimental part: Cancer cells derived from neuroblastoma (SMSKCNR), ovarian (SKOV-3), prostate (PC-3), cervical (HeLa), skin (a431), immortalized lung fibroblasts (MRCS) and immortalized trophoblasts (TCL-1) were seeded (5000-10000) in a 96 well plate in complete medium as recommended by ATCC and allowed to adhere overnight. Medium was replaced with fresh complete medium containing various concentrations of compound (2) and (3). The cells were incubated under standard humidified incubator (5% CO2) for 48 hours. The medium was replaced again with 100 μL of complete RPMI medium containing MTS reagent (Cell titre 96 aqueous one solution cell proliferation assay, Promega, Madison, Wis.) and incubated for 1-6 hours until violet farmazon color developed (the optical density (OD) of the color was read with an ELISA plate reader at 492 nm wavelength). The OD values of the treatment wells were plotted against vehicle OD as 100% cell viablity using MS excel software.
Cancer cells derived from neuroblastoma (SMSKCNR), ovarian (SKOV-3), prostate (PC-3), endometrial (ECC-1, AN3CA, KLE), breast (MCF-7) and trophoblasts (TCL-1) were seeded (5000-10000 cells/well) in a 96 well plate in complete medium as recommended by ATCC and allowed to adhere overnight. The medium was replaced with fresh complete medium containing ascorbic acid (500 μM) and added various concentrations of AC-AM. […]

SMILES strings stand for the structures.

As to `CC(=O)NC(CSC(=S)NCC12CC3CC(CC(C3)C1)C2)C(=O)O` (stereo not shown) [AC-AM], the G1 in the series on SKOV-3 cells (4 hr) was determined as 63; in the series on SKOV-3 cells (12 hr) it was 45.15; in the series with SKOV-3 cells (18 hr) it was 37.37; in the series on SKOV-3 cells (32 hr) it was 37.78; in the series with SKOV-3 cells (48 hr), 48.48. Also, the G2/M stood at 10.40 in the series on SKOV-3 cells (4 hr); 27.17 with SKOV-3 cells (12 hr); 30.85 in the series on SKOV-3 cells (18 hr); 28.89 in the series on SKOV-3 cells (32 hr); 17.90 in the series with SKOV-3 cells (48 hr). In addition, the S in the series with SKOV-3 cells (4 hr) worked out at 25.70; with SKOV-3 cells (12 hr) it was 27.67; in the series with SKOV-3 cells (18 hr), 31.78; in the series with SKOV-3 cells (32 hr), 33.34; with SKOV-3 cells (48 hr) it was 33.62. Moreover, the Apoptosis is reported as 4.81 in the series on SKOV-3 cells (4 hr); 7.73 in the series on SKOV-3 cells (12 hr); 13.33 in the series with SKOV-3 cells (18 hr); 16.29 in the series on SKOV-3 cells (32 hr); 16.62 in the series with SKOV-3 cells (48 hr). Moreover, the “effect of antioxidant ascorbic acid on cytotoxicity” value in series [1] is on record as “blocked”.
With `S=C=NCC12CC3CC(CC(C3)C1)C2` [AMITC, adamantyl methyl isothiocyanate], the “viability of immortalized TCL-1 trophoblasts” value in series [2] is “not significantly affected”. Also, the G1 in the series with SKOV-3 cells (4 hr) amounted to 63; in the series with SKOV-3 cells (12 hr) it was 46.18; in the series on SKOV-3 cells (18 hr), 39.19; in the series on SKOV-3 cells (32 hr) it was 48; with SKOV-3 cells (48 hr), 43. For the same compound, the G2/M was determined as 11 in the series on SKOV-3 cells (4 hr); 26.06 in the series on SKOV-3 cells (12 hr); 29.13 in the series with SKOV-3 cells (18 hr); 20.12 in the series with SKOV-3 cells (32 hr); 37.44 in the series with SKOV-3 cells (48 hr). Further, the S amounted to 25.30 in the series with SKOV-3 cells (4 hr); 27.27 in the series on SKOV-3 cells (12 hr); 31.32 in the series on SKOV-3 cells (18 hr); 31.86 with SKOV-3 cells (32 hr); 19.36 with SKOV-3 cells (48 hr). For the same compound, the Apoptosis in the series on SKOV-3 cells (4 hr) was 7.24; in the series on SKOV-3 cells (12 hr), 8.52; with SKOV-3 cells (18 hr), 14.83; with SKOV-3 cells (32 hr), 16.07; in the series with SKOV-3 cells (48 hr) it was 19.46. Moreover, the “effect on cell cycle phases (in words)” value in the series with SKOV-3 cells (SKOV-3 ovarian cancer cells) was “arrest ovarian cancer cells in G2/M phase”.

(Values after US8772335B2, “Adamantyl derivatives as therapeutic agents” (Women & Infants' Hospital of Rhode Island, priority 2011, dated 2014).)
